Read-outs that look alike come from different tables or passages of the source.
What was measured:
[1] = Tablet dissolution test (paddle method); type: physicochemical; details: McILvaine buffer pH 3.0
Description: Three different strengths of tablets (10 mg, 5 mg and 1 mg of bifeprunox mesylate) were prepared having the compositions shown in Table 10; the tablets were designated T1, T2 and T3, respectively.
Each of the tablets were placed in a dissolution test under the following conditions: Apparatus: paddle method; Stirring speed: 50 rpm; Amount of test dissolution medium: 900 ml; Temperature of dissolution medium: 37° C.±0.5° C.
Six different dissolution media were used as follows:
Media 1: Dissolve 2.0 g of sodium chloride dissolved in 7.0 ml of hydrochloric acid, q.s. with water to make 1000 ml (pH 1.2);
Media 2: McILvaine buffer solution (pH 3.0), pH adjusted with 0.05 mol/L of sodium hydrogen phosphate and 0.025 mol/L of citric acid;
Media 3: McILvaine buffer solution (pH 4.0);
Media 4: McILvaine buffer solution (pH 5.0);
Media 6: To 250 ml of 0.2 mol/L potassium dihydrogenphosphate TS add 118 ml of 0.2 mol/L sodium hydroxide TS and water to make 1000 ml.
Dissolution testing was performed in triplicate.

[2] = Population PK assessment in patients with schizophrenia; type: in vivo, human; details: schizophrenia patients (SP)
From the text: (§1) The pharmacokinetics of bifeprunox in healthy subjects were investigated based on a pooled analysis of pharmacokinetic (PK) parameters from 21 clinical pharmacology studies. The pooled analysis included PK profiles obtained following single and multiple doses administered to 132 and 399 subjects, respectively, and explored the potential effects of age, gender, body weight and race. In addition, PK in patients (PTS) with schizophrenia were investigated using a population PK approach based on samples from 376 subjects in phase II studies and 434 subjects in phase III studies.
A population-based PK assessment using compartmental methods was conducted in 810 patients with schizophrenia enrolled in several clinical studies.

[3] = PK in healthy subjects with reduced CYP2C enzyme activity; type: in vivo, human
[4] = In vitro metabolism; type: in vitro ADME; details: in vitro data, CYP2A4
[5] = Pooled analysis of pharmacokinetic parameters in healthy subjects; type: in vivo, human
From the text: as §1
(§2) In healthy subjects and patients with schizophrenia, the maximum tolerated single dose of bifeprunox was 0.5 mg. Tolerance to dose-limiting side effects (nausea, dizziness, vomiting, and orthostatic hypotension) developed as the dosage was titrated upwards. All PK assessments at doses higher than 0.5 mg were performed following multiple dosages under steady-state conditions. Doses of 5-40 mg were administered in efficacy studies. PK parameters describing absorption, distribution, metabolism, and elimination were calculated based on non-compartmental analysis. PK parameter values from each study were combined to create a pooled dataset. The potential influence of gender, body weight, and race on bifeprunox PK was analyzed.

[6] = Maximum tolerated single dose; type: in vivo, human; details: healthy subjects and patients with schizophrenia
Description: as §2

[7] = target: T1, CYP2C9 (Homo sapiens, UniProt P11712); experiment: In vitro metabolism; type: in vitro ADME; details: in vitro data
[8] = target: T2, CYP3A4 (Homo sapiens, UniProt P08684); experiment: Metabolism based on in vivo data; set-up: from tissue; host or cells: endogenous enzyme of clinical subjects (in vivo)
Description: (§3) Based on those pharmacokinetics, bifeprunox (an investigational partial dopamine agonist antipsychotic compound) was rapidly absorbed after oral administration. Multiple-dose PK of bifeprunox were dose proportional over the range of 20 to 40 mg doses. Bifeprunox was extensively distributed into peripheral tissues and highly protein bound. It was primarily eliminated in the feces. […] Bifeprunox has a low drug interaction potential with other drugs used in these studies (e.g. lithium, warfarin and famotidine).

[9] = target: T1, CYP2C9; experiment: Metabolism based on in vivo data; set-up: from tissue; host or cells: endogenous enzyme of clinical subjects (in vivo)
Description: as §3

[10] = Administration with a high-fat meal; type: in vivo, human; details: 40 mg dose
Description: Bifeprunox was rapidly absorbed after oral administration. The median time to peak plasma concentration (Tmax) was approximately 2 hours. Multiple patients were dosed proportional in the 20 to 40 mg/day range (mean AUC0-24 for 20 mg: 381.5 ng·hr/mL and mean AUC0-24 for 40 mg: 825.1 ng·hr/mL). […] Absolute oral bioavailability of the bifeprunox tablets used in the pooled studies has not been determined.

[11] = Drug-drug interactions (co-administration); type: in vivo, human
From the text: Co-administration with […] paroxetine had no effect on bifeprunox PK. Bifeprunox exposure was reduced by approximately 50% after co-administration with the CYP3A4 inducer carbamazepine. […] Bifeprunox had no effect on the PK and pharmacodynamics of warfarin and the PK of lithium. […] Administration of famotidine, an H2 antagonist that inhibits gastric acid secretion, had no effect on bifeprunox PK.

[12] = target: T2, CYP3A4; experiment: In vitro metabolism; type: in vitro ADME; details: in vitro data
[13] = tested on: plasma proteins; experiment: Plasma protein binding; type: in vitro ADME; details: human, healthy patients as well as those with renal or hepatic impairment, read-out: bound to plasma proteins
From the text: Apparent volume of distribution (Vz/F) was 1300 L. Based upon the volume of distribution, bifeprunox was extensively distributed into the peripheral tissues. […] Bifeprunox was more than 99% bound to plasma proteins in healthy patients as well as those with renal or hepatic impairment.

[14] = Stability of polymorphic forms; type: physicochemical; details: for thermodynamic stability of the crystalline form: monomethanesulfonate
From the text: During further investigations it appeared that polymorphs γ and δ are metastable, and therefore may have drawbacks when used in a pharmaceutical formulation. The unpredictable formation of one of the two polymorphs γ and δ or a mixture thereof is also undesirable. It would be desirable, therefore, to provide a stable crystalline form of 7-[4-([1,1′-biphenyl]-3-ylmethyl)-1-piperazinyl]-2(3H)-benzoxazolone monomethanesulfonate for pharmaceutical use which can be consistently produced.
Furthermore this crystalline form crystallizes in the form of large crystals which can be easily filtrated and have a high purity. Therefore this polymorph α is particularly suitable for the formulation of bifeprunox mesylate in a solid form, if desired after particle size reduction.

[15] = co-administration with carbamazepine
[16] = co-administration with fluconazole
[17] = co-administration with ketoconazole

T1 sequence (P11712 whole entry): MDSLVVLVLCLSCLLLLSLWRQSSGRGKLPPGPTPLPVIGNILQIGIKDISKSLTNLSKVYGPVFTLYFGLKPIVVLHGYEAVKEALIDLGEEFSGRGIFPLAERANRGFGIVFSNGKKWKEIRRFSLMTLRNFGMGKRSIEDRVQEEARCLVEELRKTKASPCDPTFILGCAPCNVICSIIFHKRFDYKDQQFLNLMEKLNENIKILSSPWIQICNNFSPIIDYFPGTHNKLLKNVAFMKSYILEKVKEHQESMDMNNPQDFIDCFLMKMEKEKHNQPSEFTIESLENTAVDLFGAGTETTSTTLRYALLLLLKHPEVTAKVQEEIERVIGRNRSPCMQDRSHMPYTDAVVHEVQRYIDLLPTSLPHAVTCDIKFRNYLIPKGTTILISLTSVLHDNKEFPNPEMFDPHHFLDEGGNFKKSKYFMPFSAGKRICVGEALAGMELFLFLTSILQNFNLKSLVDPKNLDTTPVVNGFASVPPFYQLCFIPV
T2 sequence (P08684 whole entry): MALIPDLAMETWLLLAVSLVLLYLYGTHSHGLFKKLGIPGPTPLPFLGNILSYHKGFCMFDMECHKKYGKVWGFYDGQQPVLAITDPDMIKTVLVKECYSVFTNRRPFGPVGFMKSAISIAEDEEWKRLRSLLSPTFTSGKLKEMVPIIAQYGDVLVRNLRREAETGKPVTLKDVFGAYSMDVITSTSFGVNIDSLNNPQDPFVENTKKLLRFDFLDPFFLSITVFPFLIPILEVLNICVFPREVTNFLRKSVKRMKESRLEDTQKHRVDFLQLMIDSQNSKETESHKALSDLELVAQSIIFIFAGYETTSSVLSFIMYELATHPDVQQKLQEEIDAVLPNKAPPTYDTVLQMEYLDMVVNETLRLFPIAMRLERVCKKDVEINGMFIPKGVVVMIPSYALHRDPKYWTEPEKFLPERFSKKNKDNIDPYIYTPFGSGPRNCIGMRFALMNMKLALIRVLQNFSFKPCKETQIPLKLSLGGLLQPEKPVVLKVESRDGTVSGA

Compound: O=c1[nH]c2cccc(N3CCN(Cc4cccc(-c5ccccc5)c4)CC3)c2o1 [bifeprunox, 7-[4-([1,1′-biphenyl]-3-ylmethyl)-1-piperazinyl]-2(3H)-benzoxazolone monomethanesulfonate]
- dissolution behavior [1]: dissolves almost immediately
- half-life ([2]; human, in vivo, oral): 15 h
- Vd/F ([2]; human, in vivo, oral, read-out: Vz/F): ~1100 L
- Cl/F [2]: 57 L/h
- AUC, fold higher than for extensive metabolizers ([3]; intermediate metabolizers): 3.7 fold
- Cmax, fold higher than for extensive metabolizers ([3]; intermediate metabolizers (reduced CYP2C activity)): 3.1 fold
- AUC, fold higher than for extensive metabolizers ([3]; slow metabolizers): 7.1 fold
- Cmax, fold higher than for extensive metabolizers ([3]; slow metabolizers (reduced CYP2C activity)): 3.9 fold
- metabolism in the liver by enzyme [4]: minor contribution
- Bioavailability (predicted) ([5]; based on hepatic blood flow and oral clearance): 54%
- mean steady-state elimination half-life (t1/2) ([5]; following multiple dose administration): 14.4 hours and approximately 14 hours
- Cl/F ([5]; healthy subjects (HS)): 62.2 L/h
- blood plasma ratio ([5]; human, blood and plasma): 0.7 to 0.9
- Vd/F ([5]; human, in vivo): ~1300 L
- distribution of bifeprunox or its metabolites into red blood cells ([5]; human, in vivo): No extensive distribution
- half-life ([5]; human, in vivo): 14 h
- half-life ([5]; human, in vivo, multiple dose, 20 and 40 mg/day, mean ± SD, read-out: T1/2 (converted)): 14.4 ± 5.3 h
- AUC(0-t) ([5]; human, plasma, oral, 20 mg, multiple dose, read-out: mean AUC0-24): 382 ng·h/mL
- AUC(0-t) ([5]; human, plasma, oral, 40 mg, multiple dose, read-out: mean AUC0-24): 825 ng·h/mL
- Vd/F ([5]; human, plasma, oral, healthy subjects, read-out: Apparent volume of distribution (Vz/F)): 1300 L
- Cmax ([5]; human, plasma, oral, multiple dose, 20 and 40 mg/day, dose normalized to 20 mg, mean ± SD): 62.1 ± 38.2 ng/mL
- AUC(0-t) ([5]; human, plasma, oral, multiple dose, 20 and 40 mg/day, dose normalized to 20 mg, mean ± SD, read-out: AUC0-24): 402 ± 292 ng·h/mL
- Vd/F ([5]; human, plasma, oral, multiple dose, 20 and 40 mg/day, mean ± SD, read-out: Vzbw/F (apparent volume of distribution corrected by body weight)): 17.3 ± 9.4 L/kg
- Tmax ([5]; human, plasma, oral, multiple dose, 20 and 40 mg/day, median (range), read-out: Tmax): 2 h
- CL/F ([5]; human, plasma, po, multiple dose, 20 and 40 mg/day, mean ± SD, read-out: CLbw/F (weight normalized oral clearance) (converted)): 15 mL/min/kg
- Tmax ([5]; human, plasma, oral administration, read-out: median time to peak plasma concentration (Tmax)): ~2 h
- age-, gender-, body weight-, or race-related effects on PK ([5]; pooled analysis): no clinically relevant
- Steady-state mean oral clearance (CL/F) ([5]; steady state): 62.2 L/h
- maximum tolerated single dose [6]: 0.5 mg
- metabolism in the liver by enzyme [7]: primarily
- metabolism by enzyme, based on in vivo data [8]: to a lesser extent
- metabolism by enzyme, based on in vivo data [9]: primarily metabolized
- Cmax increase with high-fat meal [10]: 29%
- Tmax delay with high-fat meal [10]: 1.5 h
- effect on bifeprunox PK ([11]; administration of famotidine): no effect
- prothrombin time profile following warfarin, presence versus absence of bifeprunox ([11]; bifeprunox 40 mg/day with warfarin): comparable
- decrease of mean AUC0-24 [11, 15]: 54%
- decrease of mean Cmax [11, 15]: 50%
- reduction of bifeprunox exposure [11, 15]: approximately 50%
- increase of mean bifeprunox AUC0-24 [11, 16]: 3.7 fold
- increase of mean bifeprunox Cmax [11, 16]: 2.5 fold
- increase of bifeprunox AUC0-24 [11, 17]: 63%
- increase of bifeprunox Cmax [11, 17]: 44%
- effect of bifeprunox on the PK of lithium ([11]; co-administration with lithium): no effect
- effect on bifeprunox PK ([11]; co-administration with paroxetine): no effect
- effect of bifeprunox on the PK and pharmacodynamics of warfarin ([11]; co-administration with warfarin): no effect
- metabolism in the liver by enzyme [12]: primarily
- fraction unbound [13]: < 0.01

Compound: O=c1[nH]c2cccc(N3CCN(Cc4cccc(-c5ccccc5)c4)CC3)c2o1 [polymorph α, 7-[4-([1,1′-biphenyl]-3-ylmethyl)-1-piperazinyl]-2(3H)-benzoxazolone monomethanesulfonate]
- conversion of the polymorphic form ([14]; high atmospheric humidity or higher temperature): does not undergo conversion
- thermodynamic stability of the crystalline form [14]: more thermodynamically stable

Compound: O=c1[nH]c2cccc(N3CCN(Cc4cccc(-c5ccccc5)c4)CC3)c2o1 [polymorph γ, 7-[4-([1,1′-biphenyl]-3-ylmethyl)-1-piperazinyl]-2(3H)-benzoxazolone monomethanesulfonate]
- thermodynamic stability of the crystalline form [14]: metastable

Compound: O=c1[nH]c2cccc(N3CCN(Cc4cccc(-c5ccccc5)c4)CC3)c2o1 [polymorph δ, 7-[4-([1,1′-biphenyl]-3-ylmethyl)-1-piperazinyl]-2(3H)-benzoxazolone monomethanesulfonate]
- thermodynamic stability of the crystalline form [14]: metastable
